Patent US20220009920A1 (GB005, Inc., priority 2020, published 2022)

Assays:
Test in all cases: Large panel kinase profiling
Type in all cases: biochemical
Conditions in all cases: 1 μM test article, 1 mM ATP
TYRO3 = molecular target: T1, TYRO3 (Homo sapiens, UniProt Q06418)
T1 construct: AssayQuant Technologies, Inc. (contract laboratory that ran the panel)
T1 sequence (Q06418 41-890): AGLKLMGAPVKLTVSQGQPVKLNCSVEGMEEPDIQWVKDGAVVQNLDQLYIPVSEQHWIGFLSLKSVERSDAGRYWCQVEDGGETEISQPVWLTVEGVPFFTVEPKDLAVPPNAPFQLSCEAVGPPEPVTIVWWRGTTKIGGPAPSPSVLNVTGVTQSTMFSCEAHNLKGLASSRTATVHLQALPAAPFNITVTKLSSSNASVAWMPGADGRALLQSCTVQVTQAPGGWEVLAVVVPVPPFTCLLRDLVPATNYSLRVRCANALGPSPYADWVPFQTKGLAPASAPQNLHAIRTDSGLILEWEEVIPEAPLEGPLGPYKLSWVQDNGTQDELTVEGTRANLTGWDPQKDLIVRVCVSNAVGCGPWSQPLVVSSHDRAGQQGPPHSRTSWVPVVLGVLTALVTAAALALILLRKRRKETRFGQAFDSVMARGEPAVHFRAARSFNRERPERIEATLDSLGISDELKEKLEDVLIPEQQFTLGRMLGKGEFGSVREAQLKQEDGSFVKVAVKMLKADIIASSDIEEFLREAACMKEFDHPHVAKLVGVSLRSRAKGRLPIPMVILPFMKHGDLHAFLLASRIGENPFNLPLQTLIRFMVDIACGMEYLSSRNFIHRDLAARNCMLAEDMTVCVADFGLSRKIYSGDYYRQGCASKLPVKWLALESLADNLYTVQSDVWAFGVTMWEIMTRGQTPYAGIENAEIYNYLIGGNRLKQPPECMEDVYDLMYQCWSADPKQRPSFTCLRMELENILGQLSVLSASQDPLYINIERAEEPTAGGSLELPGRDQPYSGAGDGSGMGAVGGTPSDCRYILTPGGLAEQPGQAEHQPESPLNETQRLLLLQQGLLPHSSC
Experimental: (§1) Large panel kinase profiling was performed at AssayQuant Technologies, Inc. 260 Cedar Hill Street, Marlborough, Mass. 01752 using the PhosphoSens® CSox-Sensor platform using 1 μM test article concentration and 1 mM ATP concentration (www.assayquant.com). Reactions were run in Corning, half-area 96-well, white flat round bottom polystyrene NBS microplates (Cat. #3642) after sealing using optically-clear adhesive film (TopSealA-Plus plate seal, PerkinElmer), applied with either a roller or a paddle to eliminate evaporation and resulting drift. The standard total reaction volume was 50 μL. All experiments were ran at 30° C. to control for fluctuations in ambient temperature. Plates were read from the top in kinetic mode (readings taken every 1 min), monitoring fluorescence intensity with filters using Ex 360 nm and Em 485 nm and a band width of 40 and 20 nm, respectively, and a gain of 80. Data analysis was performed using either Graphpad Prism or Gene Data Screener software.

TEK/TIE2 = molecular target: T2, TEK/TIE2 (Homo sapiens, UniProt Q02763)
T2 construct: AssayQuant Technologies, Inc. (contract laboratory that ran the panel)
T2 sequence (Q02763 23-1124): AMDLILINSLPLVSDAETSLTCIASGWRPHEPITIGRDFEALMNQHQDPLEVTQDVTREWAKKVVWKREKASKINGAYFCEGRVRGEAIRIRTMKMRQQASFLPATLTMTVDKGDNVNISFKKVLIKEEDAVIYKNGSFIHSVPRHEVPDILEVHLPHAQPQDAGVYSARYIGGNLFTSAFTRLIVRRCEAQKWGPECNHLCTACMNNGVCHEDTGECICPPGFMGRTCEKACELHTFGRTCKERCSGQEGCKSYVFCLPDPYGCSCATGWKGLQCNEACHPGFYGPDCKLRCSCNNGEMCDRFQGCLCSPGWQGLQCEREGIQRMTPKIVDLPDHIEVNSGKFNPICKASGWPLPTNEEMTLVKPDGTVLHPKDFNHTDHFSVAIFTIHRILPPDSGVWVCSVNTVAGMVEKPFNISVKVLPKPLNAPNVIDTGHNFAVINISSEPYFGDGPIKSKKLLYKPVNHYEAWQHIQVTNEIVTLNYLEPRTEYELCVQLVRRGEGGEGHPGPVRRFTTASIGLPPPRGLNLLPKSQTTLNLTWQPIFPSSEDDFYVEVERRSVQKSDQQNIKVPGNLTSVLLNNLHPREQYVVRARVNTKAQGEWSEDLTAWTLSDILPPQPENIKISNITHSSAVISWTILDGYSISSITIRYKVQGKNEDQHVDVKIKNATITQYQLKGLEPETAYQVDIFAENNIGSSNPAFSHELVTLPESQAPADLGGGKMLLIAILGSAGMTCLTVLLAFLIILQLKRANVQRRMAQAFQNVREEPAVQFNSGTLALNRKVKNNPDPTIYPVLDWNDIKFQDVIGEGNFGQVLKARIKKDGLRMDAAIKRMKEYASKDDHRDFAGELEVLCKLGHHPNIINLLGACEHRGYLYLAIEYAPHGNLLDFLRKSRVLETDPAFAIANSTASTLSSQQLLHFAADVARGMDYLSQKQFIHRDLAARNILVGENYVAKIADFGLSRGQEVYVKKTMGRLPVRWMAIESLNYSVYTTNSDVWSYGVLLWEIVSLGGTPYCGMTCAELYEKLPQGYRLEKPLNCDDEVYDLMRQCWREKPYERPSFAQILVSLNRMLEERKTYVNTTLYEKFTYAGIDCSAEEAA
Experimental: as §1

SLK = molecular target: T3, SLK (Homo sapiens, UniProt Q9H2G2)
T3 construct: AssayQuant Technologies, Inc. (contract assay)
T3 sequence (Q9H2G2 whole entry): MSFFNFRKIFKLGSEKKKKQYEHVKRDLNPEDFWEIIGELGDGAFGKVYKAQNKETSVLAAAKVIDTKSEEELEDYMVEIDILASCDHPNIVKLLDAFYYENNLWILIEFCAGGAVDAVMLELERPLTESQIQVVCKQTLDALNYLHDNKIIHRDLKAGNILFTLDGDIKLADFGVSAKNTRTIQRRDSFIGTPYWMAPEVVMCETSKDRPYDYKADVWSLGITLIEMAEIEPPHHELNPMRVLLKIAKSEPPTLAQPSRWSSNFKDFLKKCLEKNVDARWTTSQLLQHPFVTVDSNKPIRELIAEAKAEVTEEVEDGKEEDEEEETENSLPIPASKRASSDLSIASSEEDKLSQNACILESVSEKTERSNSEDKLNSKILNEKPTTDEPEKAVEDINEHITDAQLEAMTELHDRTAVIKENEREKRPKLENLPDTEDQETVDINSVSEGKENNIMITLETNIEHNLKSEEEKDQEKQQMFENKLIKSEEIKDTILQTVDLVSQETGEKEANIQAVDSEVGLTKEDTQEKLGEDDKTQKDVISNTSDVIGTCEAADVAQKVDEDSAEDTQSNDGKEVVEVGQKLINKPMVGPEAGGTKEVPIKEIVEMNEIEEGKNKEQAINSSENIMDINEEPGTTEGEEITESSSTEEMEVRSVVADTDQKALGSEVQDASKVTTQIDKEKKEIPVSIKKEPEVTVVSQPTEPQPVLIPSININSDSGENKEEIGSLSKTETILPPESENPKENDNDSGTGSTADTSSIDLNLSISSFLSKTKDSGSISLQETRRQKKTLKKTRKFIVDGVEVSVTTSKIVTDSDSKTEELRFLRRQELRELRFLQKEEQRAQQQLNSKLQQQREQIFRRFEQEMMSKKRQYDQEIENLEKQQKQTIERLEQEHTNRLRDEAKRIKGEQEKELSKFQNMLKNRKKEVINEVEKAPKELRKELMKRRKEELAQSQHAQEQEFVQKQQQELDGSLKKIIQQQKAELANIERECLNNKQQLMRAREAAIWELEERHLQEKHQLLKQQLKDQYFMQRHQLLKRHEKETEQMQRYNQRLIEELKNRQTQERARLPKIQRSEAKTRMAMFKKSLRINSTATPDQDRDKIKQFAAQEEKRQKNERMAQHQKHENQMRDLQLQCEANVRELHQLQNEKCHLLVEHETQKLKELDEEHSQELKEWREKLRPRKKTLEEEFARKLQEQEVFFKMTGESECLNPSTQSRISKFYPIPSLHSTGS
Experimental: as §1

STK4/MST1 = molecular target: T4, STK4/MST1 (Homo sapiens, UniProt Q13043)
T4 construct: AssayQuant Technologies, Inc. (contract assay)
T4 sequence (Q13043 1-487): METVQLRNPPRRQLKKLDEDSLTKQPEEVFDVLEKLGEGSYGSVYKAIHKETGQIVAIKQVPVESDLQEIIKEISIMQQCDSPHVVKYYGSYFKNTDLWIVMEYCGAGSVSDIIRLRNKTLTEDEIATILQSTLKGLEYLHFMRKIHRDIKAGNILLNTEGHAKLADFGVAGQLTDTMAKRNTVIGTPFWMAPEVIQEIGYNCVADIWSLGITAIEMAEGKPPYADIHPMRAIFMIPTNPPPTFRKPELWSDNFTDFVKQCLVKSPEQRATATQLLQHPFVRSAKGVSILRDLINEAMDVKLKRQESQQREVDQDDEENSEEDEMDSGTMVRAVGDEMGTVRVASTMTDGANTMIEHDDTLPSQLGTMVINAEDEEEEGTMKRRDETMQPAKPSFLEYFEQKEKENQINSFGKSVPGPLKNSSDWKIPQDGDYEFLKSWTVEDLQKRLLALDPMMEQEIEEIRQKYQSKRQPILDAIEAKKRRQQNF
Experimental: as §1

CSNK1D/CK1D = molecular target: T5, CSNK1D/CK1D (Homo sapiens, UniProt P48730)
T5 construct: AssayQuant Technologies, Inc. (service laboratory)
T5 sequence (P48730 whole entry): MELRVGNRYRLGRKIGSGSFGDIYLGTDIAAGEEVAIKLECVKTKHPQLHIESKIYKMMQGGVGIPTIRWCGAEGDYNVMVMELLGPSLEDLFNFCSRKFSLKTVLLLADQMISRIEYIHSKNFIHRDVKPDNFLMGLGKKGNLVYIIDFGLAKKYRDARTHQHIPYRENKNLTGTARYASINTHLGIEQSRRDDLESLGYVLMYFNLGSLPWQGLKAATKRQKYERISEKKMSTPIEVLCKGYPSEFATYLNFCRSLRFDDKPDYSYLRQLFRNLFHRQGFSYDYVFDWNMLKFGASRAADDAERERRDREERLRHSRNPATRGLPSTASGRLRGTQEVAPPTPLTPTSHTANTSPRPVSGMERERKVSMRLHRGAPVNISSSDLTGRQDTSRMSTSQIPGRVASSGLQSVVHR
Experimental: as §1

CHUK/IKKA = molecular target: T6, CHUK/IKKA (Homo sapiens, UniProt O15111)
T6 construct: AssayQuant Technologies, Inc. (ran the panel)
T6 sequence (O15111 1-745): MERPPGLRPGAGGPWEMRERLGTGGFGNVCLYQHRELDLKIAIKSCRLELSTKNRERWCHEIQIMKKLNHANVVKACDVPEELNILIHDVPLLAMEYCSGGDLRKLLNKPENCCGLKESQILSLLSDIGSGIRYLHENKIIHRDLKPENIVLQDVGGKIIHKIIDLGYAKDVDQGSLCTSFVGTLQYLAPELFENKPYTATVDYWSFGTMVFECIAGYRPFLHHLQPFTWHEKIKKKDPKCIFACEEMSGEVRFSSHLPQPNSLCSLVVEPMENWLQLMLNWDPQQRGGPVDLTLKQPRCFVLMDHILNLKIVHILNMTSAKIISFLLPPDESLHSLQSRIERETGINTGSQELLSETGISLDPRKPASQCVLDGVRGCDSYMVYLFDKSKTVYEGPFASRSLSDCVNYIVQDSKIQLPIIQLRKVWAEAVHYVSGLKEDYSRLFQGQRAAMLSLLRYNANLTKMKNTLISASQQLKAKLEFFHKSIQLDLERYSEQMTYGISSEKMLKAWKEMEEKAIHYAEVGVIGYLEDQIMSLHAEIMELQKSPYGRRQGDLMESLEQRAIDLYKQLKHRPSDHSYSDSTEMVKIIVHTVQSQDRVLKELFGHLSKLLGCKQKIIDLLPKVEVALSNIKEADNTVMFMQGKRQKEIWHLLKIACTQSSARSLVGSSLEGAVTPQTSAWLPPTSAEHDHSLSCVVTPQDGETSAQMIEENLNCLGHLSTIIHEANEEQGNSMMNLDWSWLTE
Experimental: as §1

NTRK1/TRKA = molecular target: T7, NTRK1/TRKA (Homo sapiens, UniProt P04629)
T7 construct: AssayQuant Technologies, Inc. (assay service)
T7 sequence (P04629 33-796): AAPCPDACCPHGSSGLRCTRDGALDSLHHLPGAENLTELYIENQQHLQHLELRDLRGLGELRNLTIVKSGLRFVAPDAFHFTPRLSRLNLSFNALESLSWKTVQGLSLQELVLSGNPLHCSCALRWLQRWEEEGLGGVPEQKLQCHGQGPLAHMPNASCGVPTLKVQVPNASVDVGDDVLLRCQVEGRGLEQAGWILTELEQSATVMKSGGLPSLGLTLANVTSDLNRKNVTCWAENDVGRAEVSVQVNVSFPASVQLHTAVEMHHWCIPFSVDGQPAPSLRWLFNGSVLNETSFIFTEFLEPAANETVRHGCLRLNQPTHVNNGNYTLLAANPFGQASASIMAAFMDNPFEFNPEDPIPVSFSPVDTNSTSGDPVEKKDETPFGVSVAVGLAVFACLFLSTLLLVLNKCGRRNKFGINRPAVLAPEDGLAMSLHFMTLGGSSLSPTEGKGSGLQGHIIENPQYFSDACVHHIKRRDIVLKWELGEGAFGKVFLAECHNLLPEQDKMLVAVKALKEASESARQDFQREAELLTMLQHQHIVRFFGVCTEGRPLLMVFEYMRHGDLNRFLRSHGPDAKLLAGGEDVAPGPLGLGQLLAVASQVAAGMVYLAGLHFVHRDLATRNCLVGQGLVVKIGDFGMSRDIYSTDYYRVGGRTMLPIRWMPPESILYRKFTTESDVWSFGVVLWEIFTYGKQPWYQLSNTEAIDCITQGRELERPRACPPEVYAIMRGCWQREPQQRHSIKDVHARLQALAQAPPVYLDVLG
Experimental: as §1

PRKACA = PRKACA (Homo sapiens, UniProt P17612)
Experimental: as §1

MAP4K5/KSH1 = molecular target: T8, MAP4K5/KSH1 (Homo sapiens, UniProt Q9Y4K4)
T8 construct: AssayQuant Technologies, Inc. (service provider)
T8 sequence (Q9Y4K4 whole entry): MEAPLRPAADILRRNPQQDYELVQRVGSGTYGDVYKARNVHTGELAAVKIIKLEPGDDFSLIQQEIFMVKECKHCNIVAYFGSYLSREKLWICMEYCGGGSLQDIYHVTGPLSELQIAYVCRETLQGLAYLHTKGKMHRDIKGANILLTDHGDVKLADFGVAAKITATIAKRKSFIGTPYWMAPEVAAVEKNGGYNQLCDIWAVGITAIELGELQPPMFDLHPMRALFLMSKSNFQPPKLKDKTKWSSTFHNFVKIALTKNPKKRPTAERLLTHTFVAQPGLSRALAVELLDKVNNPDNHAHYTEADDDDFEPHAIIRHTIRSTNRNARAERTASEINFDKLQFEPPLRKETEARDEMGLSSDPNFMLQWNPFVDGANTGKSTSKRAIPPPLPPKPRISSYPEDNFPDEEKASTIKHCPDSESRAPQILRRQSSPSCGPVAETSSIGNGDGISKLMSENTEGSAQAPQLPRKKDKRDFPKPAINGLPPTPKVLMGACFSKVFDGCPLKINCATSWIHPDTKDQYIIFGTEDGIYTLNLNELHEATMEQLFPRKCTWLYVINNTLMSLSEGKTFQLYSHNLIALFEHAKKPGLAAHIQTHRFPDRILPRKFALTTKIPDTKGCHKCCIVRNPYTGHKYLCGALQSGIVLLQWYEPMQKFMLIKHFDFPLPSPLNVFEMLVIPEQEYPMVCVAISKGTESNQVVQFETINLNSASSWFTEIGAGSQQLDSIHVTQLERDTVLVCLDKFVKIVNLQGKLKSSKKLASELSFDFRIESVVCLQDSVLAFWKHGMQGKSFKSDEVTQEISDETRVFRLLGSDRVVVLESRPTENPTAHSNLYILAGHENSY
Experimental: as §1

Work on C=CC(=O)N1CCCC(c2c(F)cc(C(N)=O)c3[nH]c4c(c23)CCCCC4)C1 (single isomer, unassigned) [Compound 5-6] yielded an inhibition at 1 µM (TYRO3) of 2.4%, an inhibition at 1 µM (TEK/TIE2) of -11.2% and an inhibition at 1 µM (SLK) of -3.7%. The inhibition at 1 µM (STK4/MST1) was 0.9%, the inhibition at 1 µM (CSNK1D/CK1D) was 4.2% and the inhibition at 1 µM (CHUK/IKKA) was 4%. The inhibition at 1 µM (NTRK1/TRKA) was -5%, the inhibition at 1 µM (PRKACA) was 11.4% and the inhibition at 1 µM (MAP4K5/KSH1) was -1.1%.
C=CC(=O)N1CCC[C@@H](c2c(F)cc(C(N)=O)c3[nH]c4c(c23)CCC4)C1 [Compound 10-2, (S)-8-(1-acryloylpiperidin-3-yl)-7-fluoro-1,2,3,4-tetrahydrocyclo-penta[b]indole-5-carboxamide] was tested, and the inhibition at 1 µM (TYRO3) was 10.1%, the inhibition at 1 µM (TEK/TIE2) was -15.2% and the inhibition at 1 µM (SLK) was -48.3%. For the same compound, the inhibition at 1 µM (STK4/MST1) was 0.4%, the inhibition at 1 µM (CSNK1D/CK1D) was 16.5% and the inhibition at 1 µM (CHUK/IKKA) was -14.5%. It also gave an inhibition at 1 µM (NTRK1/TRKA) of 21.6%, an inhibition at 1 µM (PRKACA) of 1% and an inhibition at 1 µM (MAP4K5/KSH1) of -4.9%.
C=CC(=O)N1CCC[C@@H](c2c(F)cc(C(N)=O)c3[nH]c4c(c23)CC2(CC4)CC2)C1 [Compound 6-2, (S)-5-(1-acryloylpiperidin-3-yl)-6-fluoro-1,2,4,9-tetrahydrospiro[carbazole-3,1′-cyclopropane]-8-carboxamide] gave an inhibition at 1 µM (TYRO3) of 14.7%, an inhibition at 1 µM (TEK/TIE2) of 4.6% and an inhibition at 1 µM (SLK) of 8.9%. For the same compound, the inhibition at 1 µM (STK4/MST1) was -9.5%, the inhibition at 1 µM (CSNK1D/CK1D) was 11.7% and the inhibition at 1 µM (CHUK/IKKA) was -36.4%. For the same compound, the inhibition at 1 µM (NTRK1/TRKA) was 19.6%, the inhibition at 1 µM (PRKACA) was 12.2% and the inhibition at 1 µM (MAP4K5/KSH1) was 4.1%.
